Reference: patent US8835410B2, “Treatment of eyelid dermatitis” (Bodor Laboratories, Inc., priority 2011, dated 2014)
Entries after “also recorded” stand apart in the source; their conditions may differ. Marks after values point to notes of the source that are not given here.

Key:
[1] = Stability of LE in aqueous suspension with or without Δ^1-cortienic acid at room temperature (HPLC); type: physicochemical; conditions: for k: 421 days
Method: To investigate the effect of Δ^1-cortienic acid (Δ^1-CA) on the stability of loteprednol etabonate (LE), the following experiments were conducted at room temperature (22.5° C.):
Inactives: Δ^1-CA, 0.1% (2.897 mM) & 0.2% (5.795 mM); Glycerin, Povidone, Tyloxapol, Edetate Disodium Dihydrate, Purified Water.
Preservative added: Benzalkonium Chloride 0.01%
• 1) To the mixture of 9.32 g glycerin (USP, 99.7%), 7.2 g Povidone (USP, 90000), 1.2 g Tyloxapol (USP), 0.08 g benzalkonium chloride (USP, […] of 50% solution), and 0.04 g Edetate Disodium Dihydrate (USP), 400 ml Purified Water (USP) was added. 2) The mixture was sonicated for 20 minutes to make a homogenous solution, and its pH was measured. 3) To 150 ml of each solution was added 0.15 g or 0.3 g of loteprednol etabonate (micronized), and the mixture was sonicated for 30 minutes to obtain two LE-only suspensions at 0.1% & 0.2%, respectively. 4) From each LE-only suspension (0.1 & 0.2%), 75 ml was taken and combined with micronized Δ^1-CA (0.075 & 0.15 g). 5) All four suspensions were mixed and sonicated again for another 30 minutes, and the pH of each was measured (Blank vehicle pH 3.4; LE only suspensions, pH 3.5; LE+Δ^1-CA suspensions, pH 3.3). 6) Each of the four suspensions was separated/pipetted (1 ml) into 8 ml amber vials (1 ml/vial) and the vials were sealed with caps and parafilm. 7) Half of each formula 1 ml/vial samples were loaded on a shaker for continuous shaking (170 times/min), and the other half of the samples were only shaken vigorously by hand each time before HPLC sample preparation. 8) For periodical samplings, one sample of every set of suspensions was taken and analyzed by HPLC. 9) All procedures were conducted at 22.5° C. Sample Preparation
The change of LE and its degradation products AE (acid etabonate) and Δ^1-CA in the suspensions was measured periodically. A vial of each series of suspensions was randomly taken, mixed/washed with 50% acetonitrile, and transferred to a 10 ml cylinder to make a final volume of 10 ml solution (about 100 μg/ml for LE 0.1% or 200 μg/ml for LE 0.2% samples).
A HPLC system operating at ambient temperature was used to quantitative determination of LE, AE and Δ^1-CA. Phenonemax Luna C18 (5μ, 150×4.6 mm) was connected to a Spectra-Physics component system consisting of a SP 8810 precision isocratic pump, a Rheodyne 7125 injector (injection volume 20 μl), a SP 8450 UV/VIS variable wavelength detector (operated at 254 nm), and a SP 4290 integrator. At a flow rate of 1 ml/min, a mobile phase consisting of acetonitrile, acetic acid, and water in a volume ratio of 60:0.2:40 eluted LE, AE and Δ^1-CA at 7.5, 3.2, and 2.2 min, respectively. Each sample was run in triplicate. The change in peak-area was recorded, and the percent ratio of each compound (LE, AE, and Δ^1-CA) toward total (LE+AE+Δ^1-CA) in peak-area was used to evaluate the disappearance of LE as well as the appearance of AE and Δ^1-CA. Since Δ^1-CA was used as an additive for LE+Δ^1-CA samples, the appearance of Δ^1-CA (from AE) was in the error range of these samples, and furthermore, in the LE-only samples, Δ^1-CA was observed from zero-time at 0.36±0.19% of total (LE+AE+Δ^1-CA), and less than, or about 0.5% thereafter in all LE-only samples; the number 0.5% was used as the amount of Δ^1-CA for all of LE+Δ^1-CA samples.

patient with necrobiosis = experiment: Topical treatment of a patient with necrobiosis; type: in vivo, human; conditions: LE as 0.5% cream of Example 2
Source text: Further confirmation has been found in a patient with necrobiosis.

Sprague-Dawley rats = experiment: Effect of steroid ointments on skin atrophy and thymus weight in rats; type: in vivo, rat; conditions: for PERCENT DECREASE IN SKIN THICKNESS / PERCENT DECREASE IN THYMUS WEIGHT: ointment on shaved dorsal skin, vs controls; for effect on thymus weight (in words) / skin atrophy (in words): topical ointment
Method: To investigate the effects of loteprednol etabonate (LE) on skin atrophy and thymus weight, the following experiments were conducted: Loteprednol etabonate (LE) and betamethasone valerate (BMV) were formulated by Otsuka Pharmaceuticals at a concentation of 0.1% in a white petrolatum base containing 5% propylene carbonate. All other test materials were steroidal anti-inflammatory compounds [Locoid® or hydrocortisone 17-butyrate (HCB) and Rinderon® or betamethasone 17-valerate (BMV-R) or white petrolatum vehicle as a control] which were commercially available in Japan at the time of testing. Sprague-Dawley rats were used in this study. All animals were from the animal research facilities of Otsuka Pharmaceutical Co. Ltd., Tokushima, Japan and all animal care and housing were according to their standard procedures. Groups of male rats (Sprague Dawley) weighing about 200-240 g were shaved on the dorsal surface. Loteprednol etabonate and betamethasone 17-valerate were administered as 0.1% ointments using white petrolatum base containing 5% propylene carbonate (PC). In separate groups, 0.12% betamethasone 17-valerate (Rinderon®), 0.1% hydrocortisone 17-butyrate (Locoid®) were administered as comparators. White petrolatum base (+5% PC) was administered to control animals. Two schedules of dosing were used: 200 mg/rat for 14 days (n=5) or 400 mg/rat for 7 days (n=7). At the end of these periods, rats were sacrificed. The thickness of a 1 cm^2 section of skin from the treated area was measured. The thymus was removed and weighed.

[2] = clinical trials, compared to prednisolone; cited from earlier work
hairless mice = experiment: Multi-week topical (photocarcinogenicity) study of loteprednol etabonate cream in hairless mice, with or without simulated sunlight; skinfold thickness; type: in vivo, mouse
Method: To investigate photocarcinogenicity, a multi-week study of loteprednol etabonate cream in hairless mice, with or without simulated sunlight, was undertaken. […] Because effects on skin atrophy were also recorded, however, and because a period of 4 weeks is the maximum recommended treatment period for eyelid dermatitis, results for the first 4 weeks of the study are given below. Mice were treated with the cream formulation once daily, five days per week. In the portion of the test summarized below, the cream contained LE in amounts of 0, 0.25% by weight and 0.5% by weight. (Higher concentrations were tested but results are not given here). Week 0 was baseline. After 4 weeks, skin thickness measurements were taken using a caliper. The cream also contained glycerin 99% USP, benzyl alcohol NF, purified water USP, carbomer 940 NF (Carbopol 980), glyceryl stearate/PEG 100 stearate, trolamine 99F, cetyl alcohol NF, stearyl alcohol NF, white petrolatum USP, light mineral oil NF and dimethicone (50 cst).

[3] = anti-inflammatory activity; cited from earlier work
[4] = regimens of Table 2, listed as loteprednol etabonate
[5] = LE 0.1% + Δ^1-CA 0.1% suspension, 22.5° C.
[6] = LE 0.1% suspension, no Δ^1-CA, 22.5° C.
[7] = LE 0.2% + Δ^1-CA 0.2% suspension, 22.5° C.
[8] = LE 0.2% suspension, no Δ^1-CA, 22.5° C.

Row | PERCENT DECREASE IN SKIN THICKNESS (Sprague-Dawley rats; 200 mg/day - 14 d) | PERCENT DECREASE IN THYMUS WEIGHT (Sprague-Dawley rats; 200 mg/day - 14 d) | effect on thymus weight (in words) (Sprague-Dawley rats; regimens of Table 2) | PERCENT DECREASE IN SKIN THICKNESS (Sprague-Dawley rats; 400 mg/day - 7 d) | PERCENT DECREASE IN THYMUS WEIGHT (Sprague-Dawley rats; 400 mg/day - 7 d) | SMILES | effect on inflammation / necrobiosis (patient with necrobiosis) | skin atrophy (skin thinning) (patient with necrobiosis) | skin atrophy (in words) (Sprague-Dawley rats; regimens of Table 2) | other results
1 | – | – | – | – | – | CCOC(=O)OC1(C(=O)O)CC[C@H]2[C@@H]3CCC4=CC(=O)C=C[C@]4(C)[C@H]3C(O)C[C@@]21C (stereo partly shown) [AE] | – | – | – | stability of degradation product AE in the suspension ([1]; aqueous LE suspensions, 22.5° C.): stable
2 | 12.8* PERCENT | 70.1** PERCENT | significant decreases in thymus weight | – | – | CCCCC(=O)O[C@]1(C(=O)CO)[C@@H](C)C[C@H]2[C@@H]3CCC4=CC(=O)C=C[C@]4(C)[C@@]3(F)[C@@H](O)C[C@@]21C [BMV, betamethasone 17-valerate] | successful in lessening inflammation | thinned the skin | caused skin atrophy | effect on thymus weight (in words) (Sprague-Dawley rats; regimens of Table 2, listed as Betamethasone valerate): most significant decreases in thymus weight
3 | 17.9* PERCENT | 29.5* PERCENT | significant decreases in thymus weight | 12.8* PERCENT | 36.0** PERCENT | CCCC(=O)O[C@]1(C(=O)CO)CC[C@H]2[C@@H]3CCC4=CC(=O)CC[C@]4(C)[C@H]3[C@@H](O)C[C@@]21C [HCB, hydrocortisone 17-butyrate] | – | – | most marked; also recorded: caused skin atrophy | –

Row | SMILES | PERCENT DECREASE IN SKIN THICKNESS (Sprague-Dawley rats; 200 mg/day - 14 d) | PERCENT DECREASE IN THYMUS WEIGHT (Sprague-Dawley rats; 200 mg/day - 14 d) | effect on thymus weight (in words) (Sprague-Dawley rats; regimens of Table 2) | PERCENT DECREASE IN SKIN THICKNESS (Sprague-Dawley rats; 400 mg/day - 7 d) | PERCENT DECREASE IN THYMUS WEIGHT (Sprague-Dawley rats; 400 mg/day - 7 d) | effect on inflammation / necrobiosis (patient with necrobiosis) | skin atrophy (skin thinning) (patient with necrobiosis) | skin atrophy (in words) (Sprague-Dawley rats; regimens of Table 2) | other results
4 | CCOC(=O)O[C@]1(C(=O)OCCl)CC[C@H]2[C@@H]3CCC4=CC(=O)C=C[C@]4(C)[C@H]3[C@@H](O)C[C@@]21C [LE, chloromethyl 17α-ethoxycarbonyloxy-11β-hydroxyandrosta-1,4-dien-3-one-17β-carboxylate] | 6.5% | 12.8% | minimal effects on skin atrophy and thymus weight | 10.3% | −2.5% | effective in treating the necrobiosis by lessening inflammation | did not cause skin atrophy | minimal effects on skin atrophy and thymus weight | cataracts [2]: did not elevate intraocular pressure or cause cataracts; elevation of intraocular pressure [2]: did not elevate intraocular pressure; skin atrophy (in words) (Sprague-Dawley rats; regimens of Table 2, listed as Loteprednol etabonate): did not cause a statistically significant decrease in skin thickness; effect on thymus weight (in words) (Sprague-Dawley rats; [4]): did not effect thymus weight significantly; skin atrophy (in words) (Sprague-Dawley rats; [4]): less skin atrophy; t95% [1, 5]: 3.66 year; k [1, 5]: 3.84 day^−1 × 10^−5; t95% [1, 6]: 2.10 year; k [1, 6]: 6.69 day^−1 × 10^−5; t95% [1, 7]: 6.12 year; k [1, 7]: 2.30 day^−1 × 10^−5; t95% [1, 8]: 3.21 year; k [1, 8]: 4.38 day^−1 × 10^−5; stabilization of LE by increase in concentration ([1]; concentration from 0.1% to 0.2%, in either LE-only or LE+Δ^1-CA suspension): more than 1.5 times; stabilization of LE by Δ^1-cortienic acid relative to LE in the absence of the enhancer (increase of half-life) ([1]; same concentration of Δ^1-CA added to LE suspension): between one and one-half and two times; also recorded: almost two times; skin atrophy (in words) (hairless mice; 1.5% and 4.5% by weight of LE and/or study extended to week 8 and week 13): more skin atrophy was seen; effect on skin thickness (in words) (hairless mice; LE at 0.25% and 0.5%, application for four weeks): no or minimal deleterious effect on skin thickness; activity relative to hydrocortisone (HC) [3]: approximately 20 times
